# Experimental data from patent US20140018431A1 (priority 2007, published 2014).
# What was measured:
# airway smooth muscle = details: literature (Belvisi, 1998); cited from earlier work
# Ang-2 (angiopoetin-2) = assay: Serum Ang-2 biomarker, patients with PAH, 12 weeks of treatment; assay type: in vivo, human; details: treatment for 12 weeks
# Description: (§1) In addition, treatment with treprostinil is shown to have positive outcome in the six minute walk test described above.
# (§2) 44 patients with PAH received study drug (Remodulin or placebo). 30 patients received Remodulin and 14 received placebo. A 12-week trial was conducted. The mean dose of Remodulin received was 72.5 ng/kg/min at Week 12 (compared to 80.0 ng/kg/min placebo-equivalent). Remodulin produced an 93.0 meter median improvement in the six-minute walk compared to placebo, Hodges-Lehmann estimate, with a 95% CI of 7.0 to 187.0 (p=0.0077) from nonparametric ANCOVA.
# (§3) Baseline patients with PAH appeared to have higher-than-normal levels of MMP-9, Ang-2, VEG-F, and PDGF (matrix metalloproteinase 9, angiopoetin-2, vascular endothelium-derived growth factor, and platelet-derived growth factor, respectively).
# [1] = tested on: PDGF (platelet-derived growth factor); assay: PDGF biomarker, patients with PAH, 12 weeks of treatment; assay type: in vivo, human; details: treatment for 12 weeks
# Description: as §1, §2, §3
# [2] = tested on: MMP-9 (matrix metalloproteinase 9); assay: MMP-9 biomarker, patients with PAH, 12 weeks of treatment; assay type: in vivo, human; details: treatment for 12 weeks
# Description: as §1, §2, §3
# Further, there was a statistically significant correlation between the degree of decrease in Ang-2 and the degree of improvement in the six-minute walk test.
# [3] = tested on: VEG-F (vascular endothelium-derived growth factor); assay: Serum VEG-F biomarker, patients with PAH, 12 weeks of treatment; assay type: in vivo, human; details: treatment for 12 weeks
# Description: as §1, §2, §3
# [4] = assay type: in vivo, human; details: patients with PAH, 12-week trial
# Description: The effect of treprostinil (in the form of Remodulin or inhaled treprostinil) on patients is analyzed using the 6-minute walk test with Borg dyspnea score, a standard assessment of exercise capacity and breathlessness in patients with lung disease. See Guyatt, G. Sullivan, M. et al. (Canada Medical Assoc. J. Vol. 132, 1985). The Six-Minute Walk corresponds closely to the demands of everyday activity and is a safe and simple measurement of functional exercise capacity for clinical trials in patients.
# The area used for the Six-Minute Walk test should be pre-measured at a minimum of 108 feet (33 meters) in length and at least 6 to 10 feet (2 to 3 meters) in width. The length should be marked with half-yard (0.5 meter) gradations. The area should be well ventilated with air temperature controlled at 20 to 23° C. ([…].).
# The tester may be at the starting end of the corridor or at the midpoint of the corridor with a stop-watch. Intermittent rest periods are allowed if the patient can no longer continue. If the patient needs to rest briefly, he/she may stand or sit and then begin again when he/she is sufficiently rested but the clock will continue to run. At the end of six minutes, the tester will call “stop” while simultaneously stopping the watch and then measure the distance walked. The Borg Dyspnea Rating is then administered.
# No other instruction or encouragement are given during the test. Eye contact with the patient should be avoided during the test. Following the walk, the person administering the test obtains a rating of dyspnea using the Borg Scale. The person uses the following dialogue:
# “I would like to use the following scale to indicate the maximal shortness of breath you had during the walk test (indicate the Borg Scale). […]
# [5] = tested on: lung myeloid dendritic cells; details: literature (Idzko, 2007), cited from earlier work
smiles,measurement,setting,value
CCCCC[C@H](O)/C=C/[C@@H]1[C@H]2C/C(=C/CCCC(=O)O)O[C@H]2C[C@H]1O [PGI2],effect on airway smooth muscle proliferation,airway smooth muscle,antiproliferative effect
CCCCC[C@H](O)CC[C@@H]1[C@H]2Cc3cccc(OCC(=O)[O-])c3C[C@H]2C[C@H]1O.[Na+] [Remodulin],serum Ang-2,Ang-2 (angiopoetin-2),significantly decreased
same,PDGF,[1],strong trend toward decreased
same,degree of change in MMP-9,[2],not significant
same,serum VEG-F,[3],significantly decreased
same,"median improvement in the six-minute walk compared to placebo, Hodges-Lehmann estimate","[4]; mean dose 72.5 ng/kg/min at Week 12, 95% CI of 7.0 to 187.0, p=0.0077, nonparametric ANCOVA",93.0 meter
same,"Borg Dyspnea score, median improvement over placebo",[4]; p=0.23,2.0
same,combined ranking of 6MW/Borg Score Index,"[4]; vs placebo, p=0.0023",significantly improved
CC#CCC(C)[C@H](O)/C=C/[C@@H]1[C@H]2C/C(=C/CCCC(=O)O)C[C@H]2C[C@H]1O (stereo partly shown) [iloprost],anti-inflammatory effects in a mouse model of asthma,[5],anti-inflammatory effects
same,induction of allergen-specific Th2 response in mediastinal lymph nodes,[5]; mouse model of asthma,abolishing the induction
